ChEMBL document CHEMBL2074391, “Overlapping substrate specificities of cytochrome P450 3A and P-glycoprotein for a novel cysteine protease inhibitor” (Drug Metab Dispos, 1998)

Experiments:
[1] = biological target: ATP-dependent translocase ABCB1 (Homo sapiens, UniProt P08183); experiment: TP_TRANSPORTER: transepithelial transport (basal to apical) in MDR1-expressing MDCK cells; type: functional, cell-based; conditions: dog
ABCB1 (P-glycoprotein) [2] = biological target: T1, ABCB1 (P-glycoprotein) (Homo sapiens, UniProt P08183); experiment: TP_TRANSPORTER: inhibition of photolabeling by Azidopine (Azidopine: 0.05 uM, K02: 10 uM) in membranes from CEM5k cells; type: functional, cell membranes, Membrane; conditions: probe Azidopine (0.05 uM)
T1 sequence (P08183 whole entry): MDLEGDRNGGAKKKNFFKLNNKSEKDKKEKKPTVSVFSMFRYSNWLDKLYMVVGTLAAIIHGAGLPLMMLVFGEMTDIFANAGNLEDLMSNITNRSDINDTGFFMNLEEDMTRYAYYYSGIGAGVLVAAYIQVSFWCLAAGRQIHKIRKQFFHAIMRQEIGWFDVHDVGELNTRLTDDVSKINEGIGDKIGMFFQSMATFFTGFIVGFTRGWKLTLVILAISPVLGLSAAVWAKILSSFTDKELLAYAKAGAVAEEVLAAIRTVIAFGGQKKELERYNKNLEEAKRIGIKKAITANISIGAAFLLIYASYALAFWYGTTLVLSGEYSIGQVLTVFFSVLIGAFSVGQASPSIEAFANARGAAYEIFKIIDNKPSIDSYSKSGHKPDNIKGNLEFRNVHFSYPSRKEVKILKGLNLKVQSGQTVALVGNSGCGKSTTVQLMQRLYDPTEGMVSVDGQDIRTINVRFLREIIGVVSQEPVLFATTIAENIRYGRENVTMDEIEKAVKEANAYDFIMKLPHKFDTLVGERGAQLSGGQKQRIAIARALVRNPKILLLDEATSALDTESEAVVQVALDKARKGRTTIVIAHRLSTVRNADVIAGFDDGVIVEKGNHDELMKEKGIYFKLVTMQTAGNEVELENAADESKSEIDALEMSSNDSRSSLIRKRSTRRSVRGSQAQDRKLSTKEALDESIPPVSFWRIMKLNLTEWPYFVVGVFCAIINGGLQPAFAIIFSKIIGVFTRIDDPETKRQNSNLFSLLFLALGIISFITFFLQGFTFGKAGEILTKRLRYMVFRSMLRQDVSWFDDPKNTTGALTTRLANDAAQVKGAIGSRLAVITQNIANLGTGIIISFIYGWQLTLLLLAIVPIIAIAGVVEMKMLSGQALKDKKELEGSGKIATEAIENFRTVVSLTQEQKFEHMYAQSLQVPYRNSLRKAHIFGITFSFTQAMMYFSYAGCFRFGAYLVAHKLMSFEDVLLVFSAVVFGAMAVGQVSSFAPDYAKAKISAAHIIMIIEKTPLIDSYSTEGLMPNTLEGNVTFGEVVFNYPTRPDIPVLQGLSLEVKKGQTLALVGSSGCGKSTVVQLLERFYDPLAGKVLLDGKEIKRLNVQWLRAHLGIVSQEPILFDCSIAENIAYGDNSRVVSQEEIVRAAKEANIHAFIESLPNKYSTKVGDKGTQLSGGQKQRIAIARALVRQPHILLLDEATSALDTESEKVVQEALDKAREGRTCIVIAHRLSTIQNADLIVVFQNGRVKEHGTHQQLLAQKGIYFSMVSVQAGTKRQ

ABCB1 (P-glycoprotein) [3] = biological target: T1, ABCB1 (P-glycoprotein); experiment: TP_TRANSPORTER: inhibition of photolabeling by LU-49888 (LU-49888: 0.1 uM, K02: 10 uM) in membranes from CEM5k cells; type: functional, cell membranes, Membrane; conditions: probe LU-49888 (0.1 uM)

Chain of ATP-dependent translocase ABCB1 (P08183 whole entry): as above

Question: O=C(N[C@H](/C=C/S(=O)(=O)c1ccccc1)CCc1ccccc1)[C@H](Cc1ccccc1)NC(=O)N1CCOCC1 was tested. Which Activity [1] did it give?
Answer: substrate [+]

Question: And the inhibition at 10 µM (ABCB1 (P-glycoprotein) [2])?
Answer: 74%

Question: What about the inhibition at 10 µM (ABCB1 (P-glycoprotein) [3]) of the same molecule?
Answer: 80%
